Experiment: in vitro
Details: human, hela cells, % viability

| Structure (SMILES) | viability at 28.5 h, 10 µM [%] |
| --- | --- |
| O=C(Nc1ccc(Cl)cc1)N1CCN(c2ccccc2)CC1 [CBK155188] | 101 |
| Cc1ccc(S(=O)(=O)Cc2ccc(C(=O)Nc3cccc(-c4cnc5ccccc5n4)c3)cc2)cc1 [CBK268589] | 89.3 |
| Cc1cc(C)n(-c2nc3ccccc3nc2N2CCN(S(=O)(=O)c3ccccc3)CC2)n1 [CBK269399] | 79.9 |
| CC1COCC(C)N1c1ccc2nnc(-c3ccc(C(F)(F)F)cc3)n2n1 (stereo not shown) [CBK009548] | 81.7 |
| Cc1cnc(CNS(=O)(=O)c2c(C)noc2C)cn1 [CBK062328] | 104 |
| Cc1cccc2cnc(C3CCN(C(=O)c4cnn(C)c4C)CC3)cc12 [CBK285196] | 88.2 |
| Cc1ccc(CN(CCCn2ccnc2)Cc2c[nH]cn2)s1 [CBK283136] | 95.1 |
| Cc1cccc(C(C)C)c1NC(=O)C1Cc2ccccc2CN1S(=O)(=O)c1ccc(F)cc1 (stereo not shown) [CBK267992] | 101 |
| Cc1cc(NC(=O)N(Cc2cnn(C)c2)CC(C)C)ccc1F [CBK304206] | 105 |
| COc1cccc(Cc2c(C)nc3c(C(=O)NCC4COc5ccccc5O4)cnn3c2C)c1 (stereo not shown) [CBK162064] | 111 |
| NC(=O)c1cccc(-c2nccnc2NCCO)c1 [CBK088993] | 97 |
| O=C(NCCCO)Nc1ccc2nc(-c3ccco3)c(-c3ccco3)nc2c1 [CBK265161] | 92.4 |
| CCCC/C=C/c1nccnc1N[C@@H](CO)C(C)C [CBK037514] | 101 |
| COc1cccc(Nc2cc(-c3ccco3)ncn2)c1 [CBK090740] | 101 |
| CC(C)(C)c1ccc(OCC(O)CNS(=O)(=O)O)cc1 (stereo not shown) [CBK261169N] | 102 |
| CCCCc1ccc(S(=O)(=O)n2ccc3c(N4CCNCC4)cccc32)cc1 [CBK003744C] | 78.7 |
| Cn1ccnc1C1(O)CC2CCC(C1)N2C(=O)c1ccccc1F (stereo not shown) [CBK284085] | 87.4 |
| COc1ccc(C(C)C)cc1-c1cncc(NCCc2ccccn2)n1 [CBK065325] | 94.9 |
| Cc1cc(C(=O)N2CCC(c3nccn3C)CC2)ccc1F [CBK304355] | 89.7 |
| CC1CCCCC1NC(=O)Cn1c(=O)n(C(C)C)c2ncccc21 (stereo not shown) [CBK283697] | 88.8 |
| Cc1ccccc1NS(=O)(=O)c1cc(CN2C[C@@H](C)NC[C@@H]2C)c2occc2c1 [CBK103579T] | 102 |
| O=C(C1CC1)N1CC2CN(Cc3ccccc3)CC2C12CCOCC2 (stereo not shown) [CBK283055] | 103 |

| Structure (SMILES) | viability at 28.5 h, 10 µM [%] |
| --- | --- |
| CCN(CC)S(=O)(=O)c1ccc(CNC(=O)Cc2ccc(Cl)cc2)cc1 [CBK306188] | 105 |
| CCN(CC)C(=O)CN1CCC(Oc2cncc(Oc3ccc(OC)c(OC)c3)n2)C1 (stereo not shown) [CBK084404] | 93.9 |
| CC1(C)[C@H]2CC/C(=N/O)[C@]1(C)NC2=O [CBK006513] | 84.8 |
| Oc1ccccc1/C=N/c1ccc(Cc2ccc(/N=C/c3ccccc3O)c(O)c2)cc1O [CBK261156] | 93.4 |
| Cc1ccc(C2=NN(C(=N)SC3CC(=O)N(c4ccc(C(=O)O)cc4)C3=O)C(c3ccc(Cl)cc3)C2)cc1 (stereo not shown) [CBK262472] | 91.5 |
| CS(=O)(=O)N(CC(=O)O)c1cccc(C(F)(F)F)c1 [CBK286988] | 87.8 |
| CS(=O)(=O)c1ccc(C(=O)Nc2nccs2)cc1 [CBK255213] | 98.3 |
| Cc1oc(C2CC2)cc1C(=O)N1CCC(c2ccncc2)CC1 [CBK283514] | 95.2 |
| O=C(NC1CC1)[C@H]1C=CCN1C(=O)c1cccs1 [CBK284324] | 94.7 |
| O=C1CCCN1CCCNC(=O)N1CCN(CCc2ccccc2)CC1 [CBK158932] | 91 |
| CC(c1ccc(F)c(F)c1)N(C)C(=O)Cn1cnnc1[S+](C)[O-] (stereo not shown) [CBK305311] | 105 |
| CCOC(=O)C1(C2CCCCC2)CCN(C(=O)CN2C(=O)CSC2=O)CC1 [CBK160993] | 97.1 |
| CC(C)(C)C(=O)N1CCc2c([nH]c3ccccc23)C12CCNC2 (stereo not shown) [CBK059462] | 97.5 |
| c1ccc2c(c1)OCC(COc1ccnc(N3CCCN(CCN4CCOCC4)CC3)n1)O2 (stereo not shown) [CBK083976] | 116 |
| OCCCNc1nccnc1-c1cccnc1 [CBK037277] | 108 |
| Cc1cc(S)n2nc(C)c(-c3ccccc3)c2n1 [CBK288423] | 99 |
| O=C1CCC(=O)N1CCOc1nccnc1OC1CCN(Cc2ccc(Cl)c(Cl)c2)CC1 [CBK084335] | 96.2 |
| Cc1ccc2c(c1)CCCN2C(=O)c1cccnc1NCc1ccc2c(c1)OCO2 [CBK160113] | 94.5 |
| CC(C)(C#N)c1ccccc1CN1CCCCC1c1[nH]ncc1C(N)=O (stereo not shown) [CBK304740] | 108 |
| COc1ccc(CN2CCN(C(=O)c3ccc(C#N)cc3)CC2)cc1 [CBK305698] | 99.6 |
| CC(C)NC(=O)c1sc2ccccc2c1C1CCN(C(=O)COc2ccccc2)C1 (stereo not shown) [CBK285875] | 113 |
| Cc1nn(Cc2cccnc2)c(=O)n2cccc12 [CBK283848] | 105 |

| Structure (SMILES) | viability at 28.5 h, 10 µM [%] |
| --- | --- |
| Cc1nc(N)c(CNC2CCCCC2)c(O)n1 [CBK019809] | 112 |
| O=c1[nH]cnc2ccc(Br)cc12 [CBK026537] | 93.7 |
| Cc1cccc(Cc2cccc(C3CCCN(S(=O)(=O)c4cn(C)nc4C)C3)n2)c1 (stereo not shown) [CBK286131] | 101 |
| CCc1nnc(CN(CC2CCCO2)C2CCC(C)CC2)n1C (stereo not shown) [CBK304475] | 106 |
| O=C(Nc1ccc2[nH]ccc2c1)c1cnc(-c2ccc(F)cc2)c(-c2ccncc2)c1 [CBK037451] | 91.9 |
| COC(=O)CNC(=O)c1nc(SC)ncc1Cl [CBK057651] | 107 |
| c1ccc(CCNc2nccnc2-c2cccs2)nc1 [CBK036776] | 97.7 |
| O=C(NC1CCCCC1)C1CCCN(C(=O)NCc2ccccn2)C1 (stereo not shown) [CBK305814] | 114 |
| O=C(O)CCCC(=O)Nc1ccc(Cc2ccncc2)cc1 [CBK300493] | 93.1 |
| Cc1cc(C)n(CCNC(=O)c2ncoc2-c2ccc(F)cc2)n1 [CBK282356] | 83.2 |
| CC(=O)N1CCC[C@H]2NC(=O)CNC(=O)C3(C/C=C/C[C@H]21)CCN(CC(N)=O)CC3 [CBK292135] | 84.4 |
| COc1ccc(CNCc2ccc(Cl)cc2)cc1OC [CBK263315] | 95.4 |
| CCc1cc(CNS(=O)(=O)c2ccc(C)s2)on1 [CBK283066] | 99.6 |
| c1ccc(C(NCc2cnc(-c3ncccn3)s2)C2CCC2)cc1 (stereo not shown) [CBK304013] | 81.5 |
| COc1cccc(NC(=O)CN(c2cccc(C(C)=O)c2)S(C)(=O)=O)c1 [CBK267502] | 111 |
| COc1cc2c(cc1S(N)(=O)=O)C(=O)CCC2 [CBK010234] | 92.2 |
| O=C(c1cc(F)cc(F)c1)N1CCC(n2cnc3cccnc32)CC1 [CBK283636] | 88.6 |
| CC(=O)Nc1ccc(NC(=O)c2ccc(-c3ccc([N+](=O)[O-])cc3)o2)cc1 [CBK266220] | 99.8 |
| COC(=O)[C@@H](C)NC(=O)[C@H]1CN(C(=O)c2cccnc2)CCN1C(=O)NC1CCCCC1 [CBK289632] | 86 |
| NC(=O)c1c(NC(=S)NC(NC(=O)c2ccco2)C(Cl)(Cl)Cl)sc2c1CCCC2 (stereo not shown) [CBK261055] | 103 |
| COc1ccc(Cn2nc(NC(=O)OC(C)C)c3ccccc32)cc1 [CBK048404] | 106 |
| Cc1cccc(Oc2ccccc2NS(=O)(=O)c2ccc3c(c2)N(CC(=O)O)C(=O)CO3)c1 [CBK295287] | 92.1 |

| Structure (SMILES) | viability at 28.5 h, 10 µM [%] |
| --- | --- |
| O=C(CCn1cnc2ccccc21)N1CC[C@@H](c2ccccc2)[C@H](O)C1 [CBK283712] | 102 |
| CS(=O)(=O)c1ccc(-c2ccc(C(=O)N3CCN(C(=O)c4ccco4)CC3)cn2)cc1 [CBK160190] | 95.2 |
| O=C1NC2(CCNCC2)Oc2ccc(-c3cccc4ncccc34)cc21 [CBK083775T] | 95.3 |
| CN(CC(=O)N1CCN(Cc2ccccc2)CC1)S(=O)(=O)c1ccc2ccccc2c1 [CBK267117] | 90.1 |
| Cc1cc(C)n(C(=O)CCC(=O)Nc2cccc(Cl)c2C)n1 [CBK263851] | 99.3 |
| COc1cc(OC)nc(Oc2ccc(C(=O)O)cc2)n1 [CBK092222] | 106 |
| COc1ccc(OC)c(NC(=O)CSc2nnc(-c3ccncc3)n2C)c1 [CBK266623] | 103 |
| O=C(O)C(c1c[nH]c2cc(F)ccc12)N1CCN(c2ccccc2)CC1 (stereo not shown) [CBK286675] | 102 |
| CCCCNC(=O)c1ccc2nc(CC)c(N(C)C(=O)C3CCCCC3)n2c1 [CBK145791] | 88.9 |
| Cc1ccc(C(=O)NC(C)c2nnc(SCC(=O)c3ccc(Br)cc3)n2C)cc1 (stereo not shown) [CBK266183] | 93.8 |
| Cc1cc2c(cc3c(=O)n(CC(=O)N4CCCC4)nc(C)n32)o1 [CBK283631] | 93.1 |
| C[C@]12CN(Cc3cccc(C#Cc4ccccc4)c3)C[C@H]1C(=O)Nc1ccccc1C(=O)N2 [CBK286403] | 94.9 |
| c1cc(-c2nnc3n2CCCCS3)ccn1 [CBK288543] | 99.3 |
| c1ccc(CN2CCN(Cc3ccccc3)C2c2cccnc2)cc1 [CBK260885] | 93.2 |
| CC1SC2(C(=O)Nc3ccccc32)N(c2ccc(Oc3ccccc3)cc2)C1=O (stereo not shown) [CBK103750] | 92.5 |
| O=C(O)C1CCN(c2ncnc3sc4c(c23)CCC4)CC1 [CBK268326] | 98.9 |
| Cc1ccc(C)c(NC(=O)Cc2nc(CN3CCNC(=O)C3)cs2)c1 [CBK305071] | 96.4 |
| NC(=O)c1cccnc1N1CCNCC1 [CBK025310C] | 85.8 |
| CN1CCN(c2nc(NCCNc3ccc([N+](=O)[O-])cc3)c3ccccc3n2)CC1 [CBK266949] | 77.5 |
| O=C(Nc1ccccc1C(=O)O)c1ccccc1Cl [CBK287114] | 88 |

Same assay, conditions: human, hela cells, % viability, bulk resorufin, single well

| Structure (SMILES) | viability at 28.5 h, 10 µM [%] |
| --- | --- |
| COc1ccccc1CCNCc1ccc([N+](=O)[O-])cc1 [CBK262292] | 93.3 |
| COc1cc(C=C2C(=O)NC(=S)NC2=O)cc(Br)c1OCc1c(C)no[n+]1[O-] [CBK263475] | 98.9 |
